In brackets after ≈: the same amount, converted by molar mass.
How the values were obtained:
[1] = cited from earlier work
[2] = Release of other therapeutic agents from blended PVA cast films or electrospun membranes; format: physicochemical; conditions: for drug release: 1% gentamicin
Procedure: Films or electrospun membrane were manufactured as described above containing either docetaxel, doxycycline, gentamicin or bovine serum albumin (BSA; as a protein model for any “biological” based drug such as an antibody). […] Gentamicin was analyzed using a fluorescence tag assay using Fluoraldehyde™ (Thermo Fisher) and BSA protein release was assayed using a BCA protein analysis kit.

[3] = Silver release studies (inductively coupled plasma analysis of release media); format: physicochemical; conditions: electrospun membranes 10:90 PVA99%:PVA88%, 1% w/w silver salt
Procedure: Films or electrospun membranes containing silver were placed in deionized water and the media sampled at regular intervals for silver analysis by Inductively coupled plasma analysis. Silver calibration standards were run every 10 samples. The instrument held reproducible standard curves over 100 sequential silver analysis with detection limits approximating 10 ng/ml. Each release study was run in triplicate for at least two weeks and the results plotted as the calculated percent silver released as a function of time.

MRSA strain USA300 = assay: Antimicrobial efficacy of silver-loaded PVA films and membranes; format: cell-based, S. aureus; conditions: for bacterial death: 1% w/w silver, 20 mg in 10 mL, up to 48 hours; for Anti-bacterial (MRSA) activity: 1% w/w silver salt (FIG. 11)
Procedure: In order to illustrate the antimicrobial activity of PVA-silver formulations, all cast films and electrospun membranes were weighed at 20 mg +/- 0.5 mg. The methicillin resistant strain of S. aureus (MRSA strain USA300) was cultured overnight from freezer stocks (20 µL bacterial sample into 20 mL Luria Bertani (LB) broth), followed by a second sub-culture (200 µL in 20 mL LB broth) until an optical density of -0.3-0.5 at λ=600 nm was reached (measured using an Eppendorf BioPhotometer (Eppendorf, Mississauga, ON, Canada), at which point bacteria were used as outlined below.

[4] = Film swelling and degradation studies in deionized water (cast films and electrospun membranes); format: physicochemical; conditions: cast films with 48% and 46% PVA 99% content (rest PVA 88%)
Procedure: PVA films or electrospun membranes were prepared as described above. These films were then stored for one week in the dark before use. Small sections of films (approximate diameters of 2 cm) were then placed on moist 0.2 µm filter discs (Millipore, Billerica, MA, USA) and weighed. The films and filters were covered with a thin layer of deionized water and left for appropriate times. After set time points the filter discs and adherent PVA-silver gel were moved to a Millipore vacuum apparatus and all excess water was removed from the filter over approximately 15 seconds. The combined PVA gel and filter were reweighed and recovered with a fresh layer of excess water. The weight gain (swelling) and weight loss (dissolution) were then calculated as a percentage of the original dry film weight.

[5] = electrospun membranes 10:90 PVA99%:PVA88%

In the case of `C[C@H]1c2cccc(O)c2C(=O)C2=C(O)[C@]3(O)C(=O)C(C(N)=O)=C(O)[C@@H](N(C)C)[C@@H]3[C@@H](O)[C@@H]21` [doxycycline], the water solubility [1] is listed as 500 µg/mL (≈ 1130 µM).

With `CC(=O)O[C@@]12CO[C@@H]1C[C@H](O)[C@@]1(C)C(=O)[C@H](O)C3=C(C)[C@@H](OC(=O)[C@H](O)[C@@H](NC(=O)OC(C)(C)C)c4ccccc4)C[C@@](O)([C@@H](OC(=O)c4ccccc4)[C@H]21)C3(C)C` [docetaxel] the “drug release, % of total drug” value ([2]; electrospun membranes 35:65, 45:55 or 55:45 PVA 99%:88%, 1% docetaxel, over 7 days) was 5-8%.

For gentamicin, the drug release ([2]; cast films 35:65, 45:55 or 55:45 PVA 99%:88%, over 7 days) was 50-70% and the drug release ([2]; electrospun membranes 35:65, 45:55 or 55:45 PVA 99%:88%, over 6 days) was 40%.

With `O=S(=O)([O-])[O-].[Ag+].[Ag+]` [silver sulphate] the “silver release by day 11” value [3] was 75%, the bacterial death (MRSA strain USA300; cast films 40:60 PVA99%:PVA88%) was 100% and the “Anti-bacterial (MRSA) activity” value (MRSA strain USA300; [5]) was “killed all MRSA bacteria”. For the same compound, the bacterial death (MRSA strain USA300; [5]) was 100%, the “Anti-bacterial (MRSA) activity” value (MRSA strain USA300; films 40:60 PVA99%:PVA88%) was “killed all MRSA bacteria” and the “swelling at 6 hours” value [4] was greater than 0%.

Source: patent US20230303817A1, “BLENDED POLYVINYL ALCOHOL DRUG DELIVERY SYSTEMS” (The University of British Columbia, priority 2020, published 2023)
